Changes are numbered by the printed parent chain.

The target of assay [1] is T1, Lysinibacillus sphaericus glutamate dehydrogenase (LsGluDH, SEQ ID NO: 2) variant A175G-V173G, SEQ ID NO: 35 (Lysinibacillus pinottii, UniProt A0ABT2DNY0, A175G/V173G).
T1 sequence (A0ABT2DNY0 1-457 V173G/A175G): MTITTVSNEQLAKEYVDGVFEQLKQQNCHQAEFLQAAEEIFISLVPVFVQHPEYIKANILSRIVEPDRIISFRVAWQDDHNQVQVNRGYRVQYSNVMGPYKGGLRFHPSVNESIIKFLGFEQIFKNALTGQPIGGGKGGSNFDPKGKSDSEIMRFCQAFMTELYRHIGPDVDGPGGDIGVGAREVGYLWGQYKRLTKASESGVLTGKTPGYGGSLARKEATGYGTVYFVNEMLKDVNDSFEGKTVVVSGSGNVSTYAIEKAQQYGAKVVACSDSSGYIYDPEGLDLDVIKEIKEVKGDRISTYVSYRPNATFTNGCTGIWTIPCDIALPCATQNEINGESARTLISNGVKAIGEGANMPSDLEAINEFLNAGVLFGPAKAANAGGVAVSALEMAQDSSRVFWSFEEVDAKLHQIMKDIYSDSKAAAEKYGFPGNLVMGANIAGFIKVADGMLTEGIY
Nature of the assay: Dynamic properties (Michaelis-Menten) of LsGluDH mutant, PPO reductive amination. It is filed as biochemical. Particulars: PPO 5-100 mM, NADPH 0.15 mM, NH4Cl 50 mM, PBS pH 7.5, 30° C., diluted crude enzyme, 340 nm. As to the method: (§1) A plurality of reaction systems (200 μL) comprising PBS of 100 mM pH 7.5 (pH was adjusted with aqueous ammonia solution), NADPH (reductive) of 0.15 mM, NH4Cl of 50 mM, diluted (500 folds) crude enzyme solution of 10% volume and the substrate PPO at various concentrations (5-100 mM) were formulated on a 96-well plate. The intensity of the UV absorption at 340 nm was detected at 30° C., and the rate of change in absorption over time (mA/min) was recorded. The obtained parameters were plugged into Michaelis-Menten equation, in which the reaction velocity was calculated with the rate of change in absorption.
(§2) The mutants were prepared with the coding nucleic acid of LsGluDH (SEQ ID NO: 2) as the template, and the enzyme activities and the dynamic parameters Vmax and Km were measured, according to the method of Example 1. The resulted mutants and the enzyme activities and the dynamic parameters thereof are shown in Table 2, and the relative enzyme activity means the percentage of the enzyme activity of the mutant to the enzyme activity of the mutant of SEQ ID NO: 31.

Assay [2] has as its target T2, Lysinibacillus sphaericus glutamate dehydrogenase (LsGluDH, SEQ ID NO: 2) variant A175G, SEQ ID NO: 31 (Lysinibacillus pinottii, UniProt A0ABT2DNY0, A175G).
T2 sequence (A0ABT2DNY0 1-457 A175G): T1 sequence (A0ABT2DNY0 1-457 V173G/A175G) with G173V
The assay is described as above. The class given is biochemical. Particulars: PPO 5-100 mM, NADPH 0.15 mM, NH4Cl 50 mM, PBS pH 7.5, 30° C., diluted crude enzyme, 340 nm. As to the method:
as §1, §2

Usually Km stands for the concentration of substrate that gives half-maximal velocity. In the case of `CP(=O)(O)CCC(=O)C(=O)O` [PPO, 2-carbonyl-4-(hydroxymethylphosphono) butyric acid], in assay [1], the Km turned out to be 49 mM and the Vmax is listed as 64 mA/min. Further, in assay [2], the Km stood at 49 mM and the Vmax was 39 mA/min.

These data come from patent publication US20250129344A1, “MODIFIED GLUTAMATE DEHYDROGENASE AND APPLICATION THEREOF” (Hunan Lier Biotech Co., Ltd., priority 2021, published 2025).
